From PMC12615863, “Improving GRPR-targeting peptides for radiotheranostics application: insights from chelator modifications and α-methyl-L tryptophan substitution” (EJNMMI Radiopharmacy and Chemistry, 2025)

Tests used:
[1] = target: T1, GRPR (Homo sapiens, UniProt P30550); set-up: method as in PMID 19480415; settings: LigandTracer, PC-3 cells, previously published data, cited from earlier work
T1 construct: 3 × 10^6 PC-3 cells were seeded in 100 mm Petri dishes; host or cells: PC-3 human prostate cancer cells

[2] = tested on: PC-3 cells; assay: In vitro GRPR specificity assay (uptake with or without NOTA-PEG2-RM26 block); format: cell-based, human; settings: 1 nM radiopeptide, 1 h at 37 °C, block with 1 µM NOTA-PEG2-RM26, n = 3
Description: After discarding the medium, the cells were washed with cold (4 °C) phosphate-buffered saline containing 1% w/v bovine serum albumin (PBS/BSA). The radiopeptides (Cf = 1 nM in 1 mL PBS/BSA) were added to all wells. A subset of wells was also treated with an excess of unlabeled GRPR-binding peptide NOTA-PEG2-RM26 (Bjäreback et al. [2025]) (Cf = 1 µM in 1 mL PBS/BSA) to block GRPR. After incubation for 1 h at 37 °C, the supernatant was removed, and the cells were washed and then collected by treating them with 1 M NaOH. The activity of the collected samples was measured with the gamma counter. This assay was performed in triplicate for each radiopeptide.

T1 sequence (P30550 whole entry): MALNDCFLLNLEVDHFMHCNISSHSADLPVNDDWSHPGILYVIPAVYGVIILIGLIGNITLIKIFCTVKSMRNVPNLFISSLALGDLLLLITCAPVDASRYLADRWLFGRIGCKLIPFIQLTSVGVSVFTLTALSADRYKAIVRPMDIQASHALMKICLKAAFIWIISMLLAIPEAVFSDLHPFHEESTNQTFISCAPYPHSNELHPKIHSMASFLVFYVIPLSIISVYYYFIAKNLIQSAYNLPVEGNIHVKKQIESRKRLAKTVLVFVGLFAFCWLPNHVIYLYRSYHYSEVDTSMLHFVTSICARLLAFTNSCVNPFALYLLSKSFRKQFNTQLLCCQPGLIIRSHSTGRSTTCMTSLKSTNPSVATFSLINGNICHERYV

Compound	ka1 ([1]; 1 and 5 nM) [M⁻¹ s⁻¹]	ka2 ([1]; 1 and 5 nM) [M⁻¹ s⁻¹]	kd1 ([1]; 1 and 5 nM)	kd2 ([1]; 1 and 5 nM)	Bmax1 / Bmax2 [1]	in vitro binding specificity [2]
DOTAGA-PEG2-Pip-[Sar^11]RM26 [[^177Lu]Lu-AU-RM26-M2] [parent compound, AU-RM26-M2 (DOTAGA-PEG2-Pip-[Sar^11]RM26) labeled with Lu-177, previously reported by the authors]	184000	1.08e+06	3.53 × 10^–5 1/s	5.94 × 10^–2 1/s	0.16	
CC(C)C[C@H](NC(=O)C[C@H](O)[C@H](CC(C)C)NC(=O)[C@H](Cc1c[nH]cn1)NC(=O)CN(C)C(=O)[C@@H](NC(=O)[C@H](C)NC(=O)[C@H](Cc1c[nH]c2ccccc12)NC(=O)[C@H](CCC(N)=O)NC(=O)[C@@H](Cc1ccccc1)NC(=O)CN1CCC(NC(=O)COCCOCCNC(=O)CN2CCN(CC(=O)O)CCN(CC(=O)O)CCN(CC(=O)O)CC2)CC1)C(C)C)C(N)=O [[^177Lu]Lu-PKB1, metal not drawn]						GRPR-mediated activity uptake
